The record followed here is US20060004197A1, “Sulfonamide-based compounds as protein tyrosine kinase inhibitors” (priority 2004, published 2006).

Read-outs that look alike come from different tables or passages of the source.

The test addresses T1, Recombinant human Src (Homo sapiens, UniProt P12931).
T1 construct: made in house; host or cells: baculovirus-insect cell system
The test can be described thus: Src tyrosine kinase activity, poly E4Y / 32P-ATP phosphorylation assay. Type of test: biochemical. Conditions: for IC50: Table 3, Formula II compounds, NI = no inhibition at 100 μg/mL.

The mark [1] stands for this setting: Table 2, compound at 15 ug/mL, read-out: % Inhibition at 15 ug/mL Src (%).
Setting [2] is: Table 3, compound at 15 μg/mL, read-out: % Inhibition at 15 μg/mL Src (%).
[3] abbreviates: compound at 15 μg/mL, read-out: % Inhibition at 15 μg/mL Src %.

T1 sequence (P12931 whole entry): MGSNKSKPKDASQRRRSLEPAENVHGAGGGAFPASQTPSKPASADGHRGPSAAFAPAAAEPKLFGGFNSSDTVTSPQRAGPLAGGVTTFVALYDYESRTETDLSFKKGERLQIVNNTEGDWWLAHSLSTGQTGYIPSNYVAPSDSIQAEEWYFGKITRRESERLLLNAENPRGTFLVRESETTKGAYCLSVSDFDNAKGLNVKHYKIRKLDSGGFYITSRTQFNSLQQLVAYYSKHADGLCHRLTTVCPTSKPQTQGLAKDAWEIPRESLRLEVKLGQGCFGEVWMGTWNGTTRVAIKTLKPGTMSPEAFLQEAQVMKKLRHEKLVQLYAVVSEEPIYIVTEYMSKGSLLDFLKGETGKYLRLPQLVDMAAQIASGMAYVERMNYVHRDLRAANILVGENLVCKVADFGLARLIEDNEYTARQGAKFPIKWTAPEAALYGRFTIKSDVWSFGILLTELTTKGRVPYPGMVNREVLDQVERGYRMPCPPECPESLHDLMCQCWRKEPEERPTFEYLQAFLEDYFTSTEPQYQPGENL

For the compound `COc1ccc(Oc2ccc(NS(=O)(=O)c3ccc(Cl)c4nonc34)c(NS(=O)(=O)c3ccc(C)cc3)c2)cc1` [Compound 22u, 7-chloro-N-[4-(4-methoxy-phenoxy)-2-(4-toluenesulfonylamino)-phenyl]-benzo[1,2,5]oxadiazole-4-sulfonamide], the IC50 (usually the concentration that gives 50% inhibition) was 20 µM.

Take `Cc1ccc(S(=O)(=O)Nc2cc(NCCCc3cn[nH]c3C)c([N+](=O)[O-])cc2NS(=O)(=O)c2ccc(C)cc2)cc1` [Compound 9k, N-[4-[3-(5-methyl-1H-pyrazol-4-yl)-propylamino]-5-nitro-2-(4-toluenesulfonylamino)-phenyl]-4-toluenesulfonamide]: under setting [1], the inhibition at 15 µg/mL came out at 13%.

With `COc1ccc(Oc2ccc(NS(=O)(=O)c3ccc(C)cc3)c(NS(=O)(=O)c3ccc(S(C)(=O)=O)cc3)c2)cc1` [Compound 22ff, 4-methanesulfonyl-N-[5-(4-methoxy-phenoxy)-2-(4-toluenesulfonylamino)-phenyl]-benzenesulfonamide], the inhibition at 15 µg/mL under setting [2] came out at 2%.

As for `COc1ccc(Oc2ccc(NS(C)(=O)=O)c(NS(=O)(=O)c3ccc(C)cc3)c2)cc1` [Compound 22p, N-[2-methanesulfonylamino-5-(4-methoxy-phenoxy)-phenyl]-4-toluenesulfonamide], the inhibition at 15 µg/mL under setting [2] was found to be 17%.

As for `Cc1ccc(S(=O)(=O)Nc2ccc(C(=O)NCC(C)(C)CO)cc2NS(=O)(=O)c2ccc(C)cc2)cc1` [Compound 22f, N-(3-hydroxy-2,2-dimethyl-propyl)-3,4-bis-(4-toluenesulfonylamino)-benzamide], the inhibition at 15 µg/mL under setting [2] was found to be 3%.

Turning to `Cc1ccc(S(=O)(=O)Nc2cc(NCc3ccccn3)c([N+](=O)[O-])cc2NS(=O)(=O)c2ccc(C)cc2)cc1` [Compound 9e, N-[5-nitro-4-[(pyridin-2-ylmethyl)-amino]-2-(4-toluenesulfonylamino)-phenyl]-4-toluenesulfonamide], the inhibition at 15 µg/mL under setting [1] came out at 15%.

Regarding `Cc1ccc(S(=O)(=O)Nc2ccc(C(=NOCc3ccccc3)c3ccccc3)cc2NS(=O)(=O)c2ccc(C)cc2)cc1` [Compound 22ii, N-[4-(benzyloxyimino-phenyl-methyl)-2-(4-toluenesulfonylamino)-phenyl]-4-toluenesulfonamide], the IC50 is 64 µM.

In the case of `COc1ccc(Oc2ccc(NS(=O)(=O)c3ccc(-c4ccon4)s3)c(NS(=O)(=O)c3ccc(C)cc3)c2)cc1` [Compound 22v, 5-isoxazol-3-yl-N-[4-(4-methoxy-phenoxy)-2-(4-toluenesulfonylamino)-phenyl]-thiophene-2-sulfonamide], under setting [2], the inhibition at 15 µg/mL stood at 22%.

Turning to `COc1ccc(Oc2cc(N)c(NS(=O)(=O)c3ccc(C)cc3)cc2C(F)(F)F)cc1` [Compound 71ee, N-[2-amino-4-(4-methoxy-phenoxy)-5-trifluoromethyl-phenyl]-4-toluenesulfonamide], the inhibition at 15 µg/mL under setting [3] is 21%.

As to `COc1ccc(Oc2ccc(N)c(N(C)S(=O)(=O)c3ccc(C)cc3)c2)cc1` [Compound 71t, N-[2-amino-5-(4-methoxy-phenoxy)-phenyl]-N-methyl-4-toluenesulfonamide], the inhibition at 15 µg/mL under setting [3] came to 0%.

Take `COC(=O)c1c(S(=O)(=O)Nc2cc(Oc3ccc(OC)cc3)ccc2NS(=O)(=O)c2ccc(C)cc2)c(C)n(C)c1C` [Compound 22dd, methyl 4-[5-(4-methoxy-phenoxy)-2-(4-toluenesulfonylamino)-phenylsulfamoyl]-1,2,5-trimethyl-1H-pyrrole-3-carboxylate]: the inhibition at 15 µg/mL under setting [2] stood at 5%.

Take `COc1ccc(Oc2ccc3c(c2)NS(=O)(=O)N3)cc1` [Compound 72d, 5-(4-methoxy-phenoxy)-1,3-dihydro-benzo[1,2,5]thiadiazole 2,2-dioxide]: the inhibition at 15 µg/mL (Table 6, Formula V compounds, compound at 15 μg/mL, read-out: % Inhibition at 15 μg/mL Src (%)) stood at 12%.
